Laboratory results taken from patent US9724351B2, “Compounds for the treatment of paramoxyvirus viral infections” (priority 2012, dated 2017).

Tests used:
[1] = system: Respiratory Syncytial Virus (RSV) long strain (ATCC#VR-26); assay: RSV Antiviral Assay (CPE reduction assay); format: cell-based; details: human respiratory syncytial virus, 120 h; HEp-2 cells infected with RSV long strain, 5 days, CCK-8 readout; bins (Table 2: less than 1 μM; Table 3: equal to or higher than 1 μM and less than 50 μM); read-out: 50% effective concentration (EC50)
Description: CPE reduction assays are performed as described by Sidwell and Huffman et al., Appl. Microbiol. (1971) 22(5):797-801 with slight modifications. HEp-2 cells (ATCC#, CCL-23) are seeded at a density of 1,500 cells/30 μl/well into the 384-well cell plate(s) (Corning#3701) one day prior to the assay. Compounds are added into 384-well cell plates by Labcyte POD 810 Plate Assembler system. Each of the test compounds is provided to duplicate wells of a 384-well cell plate at final concentrations starting from 100 μM or 1 μM using ⅓ stepwise dilutions for 9 points. Quick-thaw Respiratory Syncytial Virus (RSV) long strain (ATCC#VR-26) stock in a 37° C. water bath. Place on ice until ready to use. Viruses are diluted to the concentration of 100 TCID50/30 μl with medium and 30 μl diluted RSV are added into related wells of 384-well cell plates. For each plate, sixteen wells are set aside as uninfected, untreated cell controls (CC), and nine wells per test plate receive virus only as a control for virus replication (VC). The final DMSO concentration of all wells is 1%. Place the plates at 37° C., 5% CO2 for 5 days.
After 5 days incubation, observe the CPE of cells in all wells. […] Six μl of cell counting kit-8 reagent (CCK-8, Dojindo Molecular Technologies Inc., CK04-20) are added to each well, which allows colorimetric assays to determine the number of viable cells through the dehydrogenase activity detection. After 3-4 hour incubation, the absorbance of each well is measured with a spectrophotometric plate reader at 450 nm wavelength, using a 630 nm filter as background according to manufacturer's instruction. The 50% effective concentration (EC50) is calculated by using regression analysis, based on the mean O.D. at each concentration of compound.

[2] = Cytotoxicity Determination; format: cell-based; details: human, HEp-2 cells, without addition of virus, CCK-8 readout, bins (Table 4: greater than 100 μM; Table 5: equal to or less than 100 μM and greater than 10 μM), read-out: 50% cytotoxicity concentration (CC50)
Description: In order to determine the compound cytotoxicity, in parallel, each of the compounds is applied to duplicate wells in a 384-well cell plate at serial final concentrations starting from 100 μM using ½ stepwise dilutions for 7 points without addition of virus. Incubate the cells at 37° C., 5% CO2 for 5 days. Add 6 μl CCK-8 into each well and incubate in a CO2 incubator at 37° C. for 3-4 hours. Read the plates to obtain the optical densities which are used to calculate 50% cytotoxicity concentration (CC50).

Compound	EC50 [1] [µM]	CC50 at 5 days [2] [µM]
CCc1cc(C(=O)CNC(=O)c2ccc(OCCO)c(OC)c2)nc(-c2ccc(F)cc2)c1 [Compound 2109]	< 1	10 to 100
COc1ccc(C(=O)NCC(=O)N/N=C(/c2csc3ccccc23)C(F)F)cc1OC [Compound 445]	1 to 50	> 100
CCOc1ccc(C(=O)NCC(=O)N(C)/N=C/c2csc3c(F)cccc23)cc1OC [Compound 400-25]	< 1	> 100
CCNc1ccc(C(=O)NCC(=O)N/N=C(\C)c2csc3ccccc23)cc1 [Compound 501]	1 to 50	10 to 100
COc1cc(C(=O)NCC(=O)c2ccc(OC)c(-c3c(C)[nH]c4c(F)cccc34)n2)ccc1OCCO [Compound 4002]	< 1	10 to 100
COCC/C(=N\NC(=O)CNC(=O)c1ccc(OCCO)c(OC)c1)c1csc2c(F)cccc12 [Compound 603A]	< 1	> 100
COc1ccc(C(=O)NCC(=O)N/N=C(\C)c2csc3ccccc23)cc1OC [Compound 411]	< 1	10 to 100
COc1ccc(C(=O)NCC(=O)c2nc(-c3csc4c(F)cccc34)cn2C)cc1OC [Compound 1353]	1 to 50	> 100
COc1cc(C(=O)NCC(=O)c2ccc(OC)c(-c3ccc(F)c(F)c3)n2)ccc1OCCO [Compound 1618]	< 1	> 100
CCN(CC)c1ccc(C(=O)NCC(=O)N/N=C(\C)c2csc3ccccc23)cc1OC [Compound 500]	1 to 50	> 100
COc1cc(C(=O)NCC(=O)c2cccc(-c3csc4c(F)cccc34)n2)ccc1OCc1nc[nH]n1 [Compound 1242]	1 to 50	10 to 100
COc1ccc(C(=O)NCC(=O)N/N=C(\C)c2cc3c(F)cccc3s2)cc1OC [Compound 400-3]	1 to 50	> 100
COc1ccc(C(=O)NCC(=O)c2ccc(OC)c(-c3ccc(Cl)cc3)n2)cc1OC [Compound 1525]	< 1	> 100
CCCCCC/C(=N\NC(=O)CNC(=O)c1ccc(OC)c(OC)c1)c1csc2ccccc12 [Compound 453]	1 to 50	10 to 100
COc1cc(C(=O)NCC(=O)c2cccc(-c3csc4c(F)cccc34)n2)ccc1OCC(=O)O [Compound 1248]	1 to 50	10 to 100
COc1cc(OCCC(=O)N(C)/N=C/c2csc3c(F)cccc23)ccc1OCCO [Compound 2306]	1 to 50	> 100
COc1ccc(C(=O)NCC(=O)N/N=C(\CCCC(C)C)c2csc3ccccc23)cc1OC [Compound 489]	1 to 50	10 to 100
COCC/C(=N\NC(=O)CNC(=O)c1ccc(OC)c(OC)c1O)c1csc2c(F)cccc12 [Compound 300]	< 1	10 to 100
COc1cc(C(=O)NCC(=O)c2ccc(OC)c(-c3csc4ccc(C#N)cc34)n2)ccc1OCCO [Compound 1620]	1 to 50	10 to 100
COc1ccc(C(=O)NCC(=O)c2ccnc(-c3csc4c(F)cccc34)n2)cc1OC [Compound 840]	1 to 50	> 100
COc1ccc(C(=O)NC(C)(C)C(=O)c2cccc(-c3csc4c(F)cccc34)n2)cc1OC [Compound 1340]	1 to 50	> 100
CCOC(=O)c1c[nH]c2c(/C=N/NC(=O)CNC(=O)c3ccc(OC)c(OC)c3)csc2c1=O [Compound 498]	1 to 50	> 100
COc1ccc(C(=O)NCC(=O)c2c[nH]cc(-c3csc4c(F)cccc34)c2=O)cc1OC [Compound 1337]	1 to 50	> 100
COc1cc(C(=O)NCC(=O)c2cccc(-c3csc4c(F)cccc34)n2)ccc1OCCCCO [Compound 1223]	1 to 50	10 to 100
CCOc1ccc(C(=O)NCC(=O)N/N=C(\C)c2csc3cnccc23)cc1OC [Compound 466]	1 to 50	> 100
COc1ccc(C(=O)NCC(=O)N/N=C(\C)c2coc3ccccc23)cc1OC [Compound 439]	1 to 50	> 100
COc1cc(C(=O)NCC(=O)c2ccc(OC)c(-c3ccnc(F)c3)n2)ccc1OCCO [Compound 1610]	1 to 50	> 100

Compound	EC50 [1] [µM]	CC50 at 5 days [2] [µM]
COc1cc(Br)c(C(=O)NCC(=O)N/N=C(\C)c2csc3ccccc23)cc1OC [Compound 479]	1 to 50	10 to 100
COc1cc(C(=O)NCC(=O)c2cccc(-c3csc4c(F)cccc34)n2)ccc1OC1CCOCC1 [Compound 1224]	1 to 50	> 100
COc1cc(C(=O)NCC(=O)c2ccc(OC)c(-c3csc4c(F)cccc34)n2)ccc1OCCN [Compound 1232]	< 1	10 to 100
COc1cc(C(=O)NCC(=O)c2ccc(OC)c(-c3ccc(Cl)c(F)c3)n2)ccc1OCCO [Compound 1612]	< 1	> 100
COc1ccc(C(=O)NCC(=O)N/N=C(/CC2CC2)c2csc3ccccc23)cc1OC [Compound 400-5]	1 to 50	> 100
COc1ccc(C(=O)NCC(=O)c2ccc(OC)c(-c3ccccc3F)n2)cc1OC [Compound 1528]	1 to 50	> 100
CCC/C(=N\NC(=O)CNC(=O)c1ccc(OC)c(OC)c1)c1csc2ccccc12 [Compound 427]	< 1	> 100
COc1ccc(C(=O)N2CCCCC2C(=O)c2ccc(OC)c(-c3csc4c(F)cccc34)n2)cc1OC (stereo not drawn) [Compound 1800]	1 to 50	10 to 100
COc1cc(C(=O)NCC(=O)c2ccc(OC)c(-c3ccc(C)cc3)n2)ccc1OCCO [Compound 1606]	< 1	> 100
COc1ccc(C(=O)NCC(=O)N/N=C(\CO)c2csc3ccccc23)cc1OC [Compound 442]	1 to 50	> 100
COc1cc(C(=O)NCC(=O)N/N=C/c2csc3c(F)cccc23)ccc1OCCO [Compound 604]	< 1	> 100
COc1cc(C(=O)NCC(=O)N(C)/N=C/c2c(F)sc3c(F)cccc23)ccc1OCCO [Compound 2304]	1 to 50	10 to 100
COc1cc(C(=O)CNC(=O)c2ccc(OCCCO)c(OC)c2)nc(-c2csc3c(F)cccc23)c1 [Compound 1216]	< 1	10 to 100
COc1ccc(C(=O)NCC(=O)c2cccc(-c3csc4c(F)cccc34)n2)cc1OC [Compound 1202]	1 to 50	> 100
COc1ccc(C(=O)NCC(=O)c2ccc3cccnc3c2)cc1OC [Compound 1700]	1 to 50	> 100
COc1ccc(C(=O)NCC(=O)N/N=C(\CCC(C)C)c2csc3ccccc23)cc1OC [Compound 455A]	< 1	> 100
COc1cc(C(=O)NCC(=O)c2ccc(OC)c(-c3ccc(F)c(C#N)c3)n2)ccc1OCCO [Compound 1615]	1 to 50	> 100
COCCOc1ccc(C(=O)NCC(=O)c2ccc(OC)c(-c3ccc(F)c(Cl)c3)n2)cc1C [Compound 1317]	1 to 50	> 100
CCN(CC)c1cc(C(=O)NCC(=O)N/N=C(\C)c2csc3ccccc23)ccc1OC [Compound 504]	1 to 50	10 to 100
C#Cc1cc(C(=O)CNC(=O)c2ccc(OCCO)c(OC)c2)nc(-c2csc3c(F)cccc23)c1 [Compound 4216]	1 to 50	
CCN(CC)c1ccc(C(=O)NCC(=O)N/N=C(\C)c2csc3ccccc23)cc1N(CC)CC [Compound 506]	1 to 50	
COc1cc(C(=O)NCC(=O)N/N=C/c2csc3ccccc23)ccc1Cl [Compound 215]	1 to 50	
COc1cc(C(=O)NCC(=O)c2ccc(OC)c(-c3ccc(F)c(Cl)c3)n2)ccc1-c1ccncc1 [Compound 2507]	1 to 50	
COc1cc(C(=O)NCC(=O)c2ccc(OC)c(-c3ccc(F)c(Cl)c3)n2)ccc1OCCO [Compound 1310]	< 1	
COc1cc(C(=O)NCC(=O)c2ccc(OC)c(-c3ccc(F)c(Cl)c3)n2)ccc1OCC1(N)CC1 [Compound 1307]	1 to 50	
COc1cc(C(=O)NCC(=O)c2ccc(OC)c(-c3ccc(F)c(Cl)c3)n2)ccc1OC1CC(N)C1 (stereo not drawn) [Compound 1359]	< 1	
